# Results from patent US10265378B2, “Combination therapy for head and neck cancer” (Cornell University, priority 2014, dated 2019).
# Columns and labels:
# [1] = Stability of CD1530 in drinking water by HPLC; assay type: physicochemical; conditions: room temperature, final DMSO 0.8%
# Excerpt: FIG. 7. CD1530 is stable in the drinking water for at least 7 days at room temperature. CD1530 was first dissolved in 100% DMSO and subsequently diluted in the drinking water (the final concentration of DMSO was 0.8%). The same amounts of the freshly prepared CD1530 containing drinking water and the CD1530 containing water prepared 7 days earlier and stored at the room temperature were subjected to high-performance liquid chromatography (HPLC) analysis.
# (§1) Drug treatments reduce tongue tumor development. All of the mice tolerated the 10 week 4-NQO treatment, and almost all of the mice survived the 15 week post 4-NQO treatment period (A). We determined that the CD1530 in the regular drinking water was stable for at least 7 days at room temperature by HPLC analysis (FIG. 7); thus, we decided to use drinking water as a delivery method because this method is effective and less laborious.
# [2] = tested on: 4-hydroxynonenal (4-HNE), marker of oxidative stress; test: Immunohistochemistry of tongue epithelium: 4-HNE; assay type: in vivo, mouse; conditions: compared to the 4-NQO group; antibody staining
# Experimental: (§2) Immunohistochemistry. Paraffin embedded tongue sections were stained with various antibodies (supporting information).
# (§3) Immunohistochemistry. Paraffin-embedded sections (from two to four mice per group) were deparaffinized and rehydrated, and antigen retrieval was performed using an antigen unmasking solution (Vector Laboratories, H-3300). After quenching endogenous peroxidase with 3% H2O2, the tissue sections were blocked with the blocking reagent (from the M.O.M. kit from Vector Laboratories for 4-HNE) or 10% goat serum (Vector Laboratories). Then, tissue sections were incubated with a 4-HNE antibody (1:700; mouse monoclonal antibody; Abcam, ab48506), a β-catenin antibody (1:400; rabbit polyclonal antibody; Abcam, ab6302), or a MMP9 antibody (1:70; rabbit polyclonal antibody; Abcam, ab38898), respectively, overnight at 4° C. The sections were then incubated with secondary antibodies (1:200, anti-mouse IgG from the M.O.M kit for 4-1-INE; ready-to-use anti-rabbit IgG from the Invitrogen SuperPicture kit for β-catenin and MMP9). As a negative control, sections were stained without incubation with primary antibodies. The signals were visualized based on a peroxidase detection mechanism with 3,3-diaminobenzidine (DAB) used as the substrate. Four to five representative areas of each mouse tongue section from two to four mice per group were photographed and analyzed.
# β-catenin = test: Immunohistochemistry of tongue epithelium: β-catenin; assay type: in vivo, mouse; conditions: compared to the 4-NQO group; antibody staining
# Experimental: as §2, §3
# [3] = Consumption of drug containing drinking water and diet; assay type: in vivo, mouse; conditions: 4-NQO treated mice, 15 week post 4-NQO treatment
# Excerpt: as §1
structure (smiles),measurement,setting,value
O=C(O)c1ccc(-c2ccc3cc(O)c(C45CC6CC(CC(C6)C4)C5)cc3c2)cc1 [CD1530],stable in the drinking water,[1],at least 7 days
same,4-HNE levels in tongue samples,[2],lower
same,β-catenin protein levels in the tongue epithelium,β-catenin,lower β-catenin protein levels
same,consumption of drinking water containing drug vs regular drinking water,[3],comparable
